One data set concerns chicken erythrocytes. Kind of data set: Direct agglutination of erythrocytes in the absence of IAV. The class given is cell-based. Conditions: minimal concentration. As to the method: Twofold serial dilutions (25 µL) of test compounds in PBS and 4 hemagglutinating units (HU) of IAV (25 µl) were mixed carefully in 96-well plates with U-shaped bottom (Thermo Fisher Scientific Nunc, Schwerte, Germany). Plates were shaken for 5 min. and incubated for 25 min. at room temperature (RT). 50 µL of a 1.5% suspension of newborn chicken erythrocytes (RBC) in PBS (Labor Dr. Merk & Kollegen, Ochsenhausen, Germany) were added, and plates shaken again. Assays were read following a 2 h incubation period at RT, and the minimum inhibitory concentration (MIC), defined as the highest test compound dilution showing complete inhibition of the agglutination of erythrocytes, was determined. In every assay, a test compound control (compound plus RBC without addition of IAV), and erythrocyte controls (A: IAV plus RBC, without addition of test compound; B: RBC, without addition of test compound or IAV) were included.

For data set [1], the system named is IAV(H1N1)pdm09 isolate I1. Kind of data set: microbe, parasite or virus in culture. It counts as cell-based, influenza A virus. Conditions: Influenza A virus; for IC50: H1N1; for inhibition at 2 µM / inhibition at 20 µM / inhibition at 200 µM: H1N1, 48 h, read-out: anti-IAV activity.
The next data set relates to MDCK II cells. Kind of data set: cells. Conditions: Canis lupus familiaris, 48 h, read-out: cell vitality.
The test system of a further data set is IAV(H1N1)pdm09 I1. It counts as cell-based, influenza A virus.
The next data set deals with IAV(H1N1)pdm09. More on the design: method as in PMID 24498245. Conditions: preincubation of particles for 2 h with 50 µg/mL (265 µM); A549 cells; cited from earlier work.
The target of a further data set is IAV neuraminidase. Conditions: cited from earlier work.
In data set [2] the test system is recombinant IAV laboratory strain A/Puerto Rico/8/34-NS116-GFP. Conditions: cited from earlier work.

SMILES strings stand for the structures. Read-outs that look alike come from different tables or passages of the source.

Consider `O=C(O[C@@H]1Cc2c(O)cc(O)cc2O[C@@H]1c1cc(O)c(O)c(O)c1)c1cc(O)c(O)c(O)c1` [compound 6, reference compound], for which the direct agglutination in the data set with chicken erythrocytes came out at 156 µM. In addition, in data set [1], the IC50 was no more than 12 µM, the inhibition at 2 µM was found to be 1 ± 1%, the inhibition at 20 µM amounted to 87 ± 25% and the inhibition at 200 µM turned out to be 60 ± 7%. In the data set on MDCK II cells, the viability at 2 µM was determined as 103 ± 4%, the viability at 20 µM turned out to be 92 ± 7% and the viability at 200 µM stood at 62 ± 9%. In addition, the MIC result against IAV(H1N1)pdm09 I1 is given as “no inhibitory effect”. In the data set “in vitro” (dog), this compound had a CC50 at 48 h greater than 200 µM.

Turning to `O=C(/C=C/c1ccc(O)c(O)c1)O[C@H](Cc1ccc(O)c(O)c1)C(=O)O` [compound 16, rosmarinic acid, reference compound], in data set [1], the IC50 was greater than 200 µM, the inhibition at 2 µM was 0%, the inhibition at 20 µM was 0% and the inhibition at 200 µM was determined as 1 ± 1%. In the data set with MDCK II cells, the viability at 2 µM worked out at 102 ± 1%, the viability at 20 µM came out at 103 ± 1% and the viability at 200 µM turned out to be 102 ± 1%. For the same compound, the CC50 at 48 h in the data set “in vitro” was greater than 200 µM.

Turning to `O=C(O)c1cc(O)c(O)c(O)c1` [compound 17, gallic acid monohydrate, reference compound], in the data set on IAV(H1N1)pdm09, the “effect on virus replication” value was “only little effect”. Further, the half-maximal inhibitory concentration (IC50) on IAV neuraminidase is greater than 500 µM. Also, in data set [1], the half-inhibitory concentration (IC50) is greater than 200 µM, the inhibition at 2 µM came out at 0%, the inhibition at 20 µM was -1% and the inhibition at 200 µM was 14 ± 11%. In addition, the EC50 in data set [2] is roughly 50 µM. In the data set on MDCK II cells, the viability at 2 µM was determined as 106 ± 5%, the viability at 20 µM came to 107 ± 8% and the viability at 200 µM amounted to 49 ± 18%. The compound also yielded a CC50 at 48 h in “in vitro” of 197 µM.

For the compound `Oc1cccc(O)c1O` [compound 18, pyrogallol, reference compound], in data set [1], the IC50 was no more than 241 µM, the inhibition at 2 µM was 0%, the inhibition at 20 µM was 7 ± 3% and the inhibition at 200 µM was 42 ± 1%. Moreover, in the data set with MDCK II cells, the viability at 2 µM came to 98 ± 4%, the viability at 20 µM came out at 96 ± 1% and the viability at 200 µM is 43 ± 1%. In addition, in the data set “in vitro” (dog), the CC50 at 48 h was 176 µM.

By IC50 is commonly meant the concentration that inhibits the measured activity by half. As a reminder, the EC50 is the midpoint of the concentration-response curve.

The values above are taken from article PMC4193892, “3-O-Galloylated Procyanidins from Rumex acetosa L. Inhibit the Attachment of Influenza A Virus” (PLoS ONE, 2014).
